According to patent publication EP0465913B1, “Diaminotrifluoromethylpyrimidine derivatives, process for their production and phospholipase A2 inhibitor containing them” (ISHIHARA SANGYO KAISHA, LTD., priority 1990, dated 1992):
Read-outs that look alike come from different tables or passages of the source.

Key:
[1] = target: T1, Porcine pancreatic phospholipase A2 (Sus scrofa, UniProt P00592); assay: Phospholipase A2 inhibitory activity, method B (L-α-dipalmitoylphosphatidylcholine substrate); assay type: biochemical; settings: 1,000 ppm, 37°C for 30 minutes, read-out: % inhibition of PLA2 (1,000 ppm)
T1 construct: purchased Boehringer Mannheim·Yamanouchi K.K. 161454·122416
Protocol: To a solution prepared by dissolving 9.2 mg of L-α-dipalmitoylphosphatidylcholine (manufactured by Nichiyu Liposome K.K.) in 0.5 ml of chloroform, a solution prepared by dissolving 32 mg of sodium cholate (manufactured by Wako Pure Chemical Industries, Ltd.) in 0.5 ml of methanol, was added, followed by mixing. The solvent of the mixture was removed under a nitrogen stream, and then 2.5 ml of a 250 mM sodium chloride solution [prepared by dissolving sodium chloride in a 100 mM Tris-HCl buffer solution {tris(hydroxymethyl)aminomethane (manufactured by Nacalai Tesque K.K.) was adjusted to pH8.0 with hydrochloric acid}] was added thereto, and the mixture was dissolved under stirring to obtain a substrate.
Porcine pancreatic phospholipase A2 [(161454·122416) manufactured by Boehringer Mannheim·Yamanouchi K.K.] was used.
To a 96 well microtitration plate, 20 µl of a solution containing calcium chloride, bovine serum alubmin (manufactured by Sigma Chemical, Co.) and a Tris-HCl buffer solution (pH8.0) at concentrations of 25 mM, 4.5 mg/ml and 100 mM, respectively, 5 µl of a solution prepared by dissolving 10 mg of a test compound in 500 µl of diemthylsulfoxide, followed by an addition of 500 µl of a 200 mM Tris-HCl buffer solution, 5 µl of an enzyme solution (10 µg/ml) [prepared by dissolving the enzyme in a bovine serum alubmin solution (prepared by dissolving bovine serum alubmin in a 100 mM Tris-HCl buffer solution at a concentration of 1 mg/ml)] and 20 µl of the substrate, were added and reacted at 37°C for 30 minutes. After termination of the reaction, the released free fatty acid was quantitatively analyzed in accordance with the ACS-ACOD (acyl CoA synthetase-acyl CoA oxidase) method [a kit of NEFA C test wako (manufactured by Wako Pure Chemical Industries, Ltd.) was used]. The quantitative analysis was made by means of Microplate ELISA Reader (Model 2550EIA Reader, manufactured by Bio-Rad Laboratories) at a wavelength of 540 nm. Separately, such experiments as mentioned above, were carried out at various concentrations (1 µg/ml, 0.75 µg/ml, 0.5 µg/ml and 0.25 µg/ml) of phospholipase A2 without a test compound. Then, the concentration of the free fatty acid versus the concentration of phospholipase A2 was plotted.
From this standard curve, the apparent concentration of phospholipase A2 in the case with a test compound, was read. Then, the percent inhibition of the enzyme was calculated by the following formula. Percent inhibition (%) = (l -(A)/(B)) x 100 [formula] • A: Apparent enzyme concentration when a test compound is added. • B: True enzyme concentration when a test compound is added.

[2] = test system: experimental acute pancreatitis model; assay: Effects against acute pancreatitis (Test Example 8, closed duodenal loop method, lesion scores); assay type: in vivo, Crj-CD male rats; settings: Rattus norvegicus, 10 mg/kg single intravenous injection, sodium salt, 6 hours after ventrotomy
Protocol: Using Crj-CD male rats, each test group consisted of 3 rats. An experimental acute pancreatitis model was prepared by a closed duodenal loop method under anethesia with halothane (manufactured by Hoechst Japan) and nitrous oxide (manufactured by Sumitomo Seika K.K.) applied by a general inhalation anesthesia machine (Model EM2 and halothane evaporator F-Model). Each compound (subjected to the test in the form of a sodium salt) was continuously intravenously injected into the tail vein in an amount of 0.4 ml/100 g to 0.6 ml/100 g at a rate of 0.05 ml per minute by a pump (Technicon AA II Proportioning Pump III, manufactured by Technicon Instruments Corporation) or rapidly intravenously injected. No injection was made to a control group. Gross pathological examination was conducted upon expiration of 6 hours after the ventrotomy in the case of the group to which the compound was administered. With respect to each of four lesions among pancreatic lesions i.e. petechia, ecchymosis, pancreatic necrosis and abdominal fatty necrosis, the grade and the distribution of lesions were scored with five grades of 0, 0.5, 1, 2 and 3 (severe lesions are 3). The sum of all lesions was designated as scores of pancreatitis lesions, and the sum of the score of petechia and the score of ecchymosis only was designated as scores of hemorrhagic lesions. The pancreatitis inhibition rate (%) and the hemorrhage inhibition rate (%) were obtained by the following formulas, and the results are shown in Table 13. Pancreatitis inhibition rate (%) = (l -(H)/(G)) x 100 [formula] • H: Scores of pancreatitis lesions of the group to which a test compound was administered. • G: Scores of pancreatitis lesions of the control group. Hemorrhage inhibition rate (%) = (l -(J)/(I)) x 100 [formula] • J: Scores of hemorrhagic lesions of the group to which a test compound was administered. • I: Scores of hemorrhagic lesions of the control group.

[3] = test system: carrageenin edema; assay: Inhibitory activity on carrageenin edema; assay type: in vivo, Wistar male rats; settings: rat, paw swelling volume three hours after carrageenin
Protocol: Using Wistar male rats (body weight: about 100 g), each test group consisted of 5 rats. A test compound was mixed with Tween 80 [polyoxyethylenesorbitan monooleate (manufactured by Nacalai Tesque K.K.)], and distilled water was added thereto to obtain a 2% Tween 80 suspension, or it was dissolved in the form of a salt in water to obtain an aqueous solution. Either the suspension or the aqueous solution was orally administered in an amount of 200 mg/kg, 100 mg/kg, 50 mg/kg or 25 mg/kg. One hour later, 0.1 ml of a 1% λ-carrageenin solution dissolved in a physiological saline was injected subcutaneously to the right hind paw of each rat to cause inflamation. Three hours later, the paw volume was measured by a paw volume measuring device (manufactured by Ugobasiee K.K.). A swelling volume was obtained from the difference from the value before the inflammation. Inhibition rate (%) = (l -(F)/(E)) x 100 [formula] • F: Average swelling volume in the group to which a test compound was administered. • E: Average swelling volume in the control group.

[4] = read-out: Inhibition rate of hemorrhagic lesions (%)
[5] = read-out: Inhibition rate of pancreatitis lesions (%)

T1 sequence (P00592 23-146): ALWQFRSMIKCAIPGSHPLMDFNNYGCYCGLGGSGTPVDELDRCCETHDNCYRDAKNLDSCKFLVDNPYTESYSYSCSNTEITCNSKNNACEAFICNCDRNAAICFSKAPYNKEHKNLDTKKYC

With CCS(=O)(=O)Nc1ncc(C(F)(F)F)cc1NC(=O)c1cccc(C(F)(F)F)c1 [compound 99] the inhibition at 1000 ppm [1] was 86%.
For CCc1ccc(C(=O)Nc2cc(C(F)(F)F)cnc2NS(C)(=O)=O)cc1 [compound 81], the inhibition in vivo at 10 mg/kg [2, 4] was 49%, the inhibition in vivo at 10 mg/kg [2, 5] was 58% and the inhibition at 1000 ppm [1] was 94%.
CN(C)S(=O)(=O)Nc1ncc(C(F)(F)F)cc1NC(=O)C1CCCC1 [compound 111] was tested, and the inhibition at 1000 ppm [1] was 41%.
For CN(C)S(=O)(=O)Nc1ncc(C(F)(F)F)cc1NC(=O)C(F)(F)C(F)(F)F [compound 112], the inhibition at 1000 ppm [1] was 79%.
With CS(=O)(=O)Nc1ncc(C(F)(F)F)cc1NC(=O)c1ccsc1 [compound 84] the inhibition at 1000 ppm [1] was 56%.
O=C(Nc1cc(C(F)(F)F)cnc1NS(=O)(=O)C(F)(F)F)c1cccs1 [compound 92] was tested, and the inhibition at 1000 ppm [1] was 75%.
CCOS(=O)(=O)Nc1ncc(C(F)(F)F)cc1NC(=O)C1CCCCC1 [compound 117] showed an inhibition in vivo at 10 mg/kg [2, 4] of 30%, an inhibition in vivo at 10 mg/kg [2, 5] of 30% and an inhibition at 1000 ppm [1] of 65%.
CCCCCCC(=O)Nc1cc(C(F)(F)F)cnc1NS(C)(=O)=O [compound 124] showed an inhibition in vivo at 10 mg/kg [2, 4] of 51%, an inhibition in vivo at 10 mg/kg [2, 5] of 51% and an inhibition at 1000 ppm [1] of 78%.
CS(=O)(=O)Nc1ncc(C(F)(F)F)cc1NC(=O)c1ccc2c(c1)OCC(F)(F)O2 [Compound No. 35] was tested, and the inhibition in vivo at 10 mg/kg [2, 4] was 35% and the inhibition in vivo at 10 mg/kg [2, 5] was 35%.
In the case of CC(C)=CC(=O)Nc1cc(C(F)(F)F)cnc1NS(C)(=O)=O [compound 70], the inhibition at 1000 ppm [1] is reported as 40%.
CCS(=O)(=O)Nc1ncc(C(F)(F)F)cc1NC(=O)C1CCCCCC1 [compound 97] gave an inhibition in vivo at 10 mg/kg [2, 4] of 35%, an inhibition in vivo at 10 mg/kg [2, 5] of 35% and an inhibition at 1000 ppm [1] of 88%.
O=C(Nc1cc(C(F)(F)F)cnc1NS(=O)(=O)c1cccs1)c1ccc2c(c1)CCC2 [compound 127] was tested, and the inhibition at 1000 ppm [1] was 89%.
CC(Cl)(Cl)C(=O)Nc1cc(C(F)(F)F)cnc1NS(C)(=O)=O [compound 89] was tested, and the inhibition at 1000 ppm [1] was 51%.
In the case of O=C(Nc1ncc(C(F)(F)F)cc1NC(=O)C1CCCCC1)c1ccccc1 [compound 150], the “Inhibition rate (%)” value ([3]; dose 50 mg/kg orally) is reported as 23%.
With CCS(=O)(=O)Nc1ncc(C(F)(F)F)cc1NC(=O)c1ccc(C(F)(F)F)cc1 [compound 100] the inhibition at 1000 ppm [1] was 83%.
CC(C)S(=O)(=O)Nc1ncc(C(F)(F)F)cc1NC(=O)C1CCCCC1 [compound 103] was tested, and the inhibition at 1000 ppm [1] was 86%.
For CS(=O)(=O)Nc1ncc(C(F)(F)F)cc1NC(=O)C(=O)c1ccccc1 [compound 90], the inhibition at 1000 ppm [1] was 79%.
With CS(=O)(=O)Nc1ncc(C(F)(F)F)cc1NC(=O)c1ccc(F)cc1F [compound 76] the inhibition at 1000 ppm [1] was 61%.
Compound CCOC(=O)NC(=S)Nc1cc(C(F)(F)F)cnc1NS(=O)(=O)c1ccc(C)cc1 [Compound No. 25] has an inhibition in vivo at 200 mg/kg ([3]; po, 3 h, dose 200 mg/kg orally, read-out: Inhibition rate (%)) of 27%.
For CS(=O)(=O)Nc1ncc(C(F)(F)F)cc1NC(=O)c1cc2c(s1)CCC2 [compound 88], the inhibition at 1000 ppm [1] was 83%.
